Experiments:
[1] = low solubility and high permeability; cited from earlier work
[2] = Saturation solubility in ddH2O; type: physicochemical; settings: for Saturation & Solubility: ddH2O, 25° C., 100 rpm, 90 minutes, triplicates, mean ± SD; for water solubility (in words): saturation solubility study
Experimental: Determination of Saturation Solubility of Chidamide-HCl, Chidamide-H2SO4, and Celecoxib-Na Salts. Sample of 5 mg of chidamide-HCl, chidamide-H2SO4, or celecoxib-Na salts was added to 5 ml volumetric flasks containing ddH2O and shook at 100 rpm in an incubator at 25° C. for 90 minutes. The resulting suspension was filtered through a 0.22 μm filter. The concentrations of chidamide-HCl, chidamide-H2SO4, and celecoxib-Na salts were determined spectrophotometrically at 256 nm, 256 nm, and 253 nm, respectively. The saturation solubility of each sample was determined in triplicates and the mean value and standard deviation were reported. Preparation of standard curves is described as below.

| SMILES | BCS class [1] | Saturation & Solubility [2] | water solubility (in words) [2] |
| --- | --- | --- | --- |
| Cc1ccc(-c2cc(C(F)(F)F)nn2-c2ccc(S(N)(=O)=O)cc2)cc1 [Celecoxib-API, 4-[5-(4-Methylphenyl)-3-(trifluoromethyl)pyrazol-1-yl]benzenesulfonamide, reference compound] | class II | BDL | water-insoluble |
| Nc1cc(F)ccc1NC(=O)c1ccc(CNC(=O)/C=C/c2cccnc2)cc1 [Chidamide-API, 4-(((E)-3-(pyridin-3-yl)acrylamido)methyl)-N-(2-amino-4-fluorophenyl)benzamide, reference compound] |  | BDL | water-insoluble |
